# Experiments:
# WT TOP = biological target: T1, WT TOP (Rattus norvegicus, UniProt P24155); test: Inhibition constant of JA-2, continuous assay with QFS, WT TOP; assay type: biochemical; settings: substrate QFS, 37 °C, 50 mM Tris-HCl pH 7.4, 100 mM NaCl, 0.5 mM DTT
# T1 construct: made in house; host or cells: Escherichia coli BL21 (DE3), pET26b
# Experimental: (§1) WT TOP and mutant activities were monitored spectrofluorometrically in a Shimadzu RF-5301PC spectrofluorometer using the FRET peptide QFS (Mca-Pro-Leu-Gly-Pro-D-Lys (Dnp)-OH) as substrate, with excitation and emission wavelengths of 320 and 420 nm, respectively. TOP and its mutants were pre-activated by incubation with 0.5 mM DTT for 5 min at 37 °C. The concentration of the peptide solutions was determined by measuring the absorption of the 2,4-dinitrophenyl group at 365 nm (ε = 17,300 M^−1cm^−1). The kinetic parameters of peptide hydrolysis were determined at 37 °C in 50 mM Tris-HCl buffer, pH 7.4, containing 100 mM NaCl. […] The reaction was monitored continuously via the fluorescence of the released product. The rate of increase in fluorescence was converted into moles of substrate hydrolyzed per second based on the fluorescence curves of standard peptide solutions before and after total enzymatic hydrolysis. […] An empirical equation was used to correct for the inner-filter effect, and the kinetic parameters were calculated according to Wilkinson and by using Eadie–Hofstee plots. […]
# (§2) Inhibition constants were determined using the TOP inhibitor JA-2 (N-[1-(R,S)-carboxy-3-phenylpropyl]Ala-Aib-Tyr-p-aminobenzoate). The constants were determined in a continuous assay using the FRET peptide QFS as substrate. […]
# TOP^-TrpW390 = biological target: T2, TOP^-TrpW390 (Rattus norvegicus, UniProt P24155, W124F/W335F/W511F/W513F/W614F); test: Inhibition constant of JA-2, continuous assay with QFS, TOP^-TrpW390; assay type: biochemical; settings: substrate QFS, 37 °C, 50 mM Tris-HCl pH 7.4, 100 mM NaCl, 0.5 mM DTT
# T2 construct: made in house; host or cells: Escherichia coli BL21 (DE3), pET26b
# T2 sequence (P24155 whole entry W124F/W335F/W511F/W513F/W614F): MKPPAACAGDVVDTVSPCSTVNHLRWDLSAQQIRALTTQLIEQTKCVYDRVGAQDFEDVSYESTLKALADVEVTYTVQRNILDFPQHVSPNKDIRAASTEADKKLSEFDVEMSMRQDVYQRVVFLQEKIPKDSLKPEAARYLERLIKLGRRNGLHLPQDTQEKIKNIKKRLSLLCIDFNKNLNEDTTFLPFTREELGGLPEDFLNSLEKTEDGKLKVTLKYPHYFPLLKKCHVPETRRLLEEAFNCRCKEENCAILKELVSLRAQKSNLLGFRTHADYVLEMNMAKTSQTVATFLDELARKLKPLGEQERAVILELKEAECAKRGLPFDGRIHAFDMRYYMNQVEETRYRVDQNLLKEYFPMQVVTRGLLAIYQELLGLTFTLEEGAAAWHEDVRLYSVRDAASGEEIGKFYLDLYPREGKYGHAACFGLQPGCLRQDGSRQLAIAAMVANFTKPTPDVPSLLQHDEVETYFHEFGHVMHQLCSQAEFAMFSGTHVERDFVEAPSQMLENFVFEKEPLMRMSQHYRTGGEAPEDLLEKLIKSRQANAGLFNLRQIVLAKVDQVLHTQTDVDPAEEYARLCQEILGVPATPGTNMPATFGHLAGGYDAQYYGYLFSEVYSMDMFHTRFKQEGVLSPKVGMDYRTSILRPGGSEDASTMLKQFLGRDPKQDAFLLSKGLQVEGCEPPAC
# Experimental: as §1, §2
# TOP^-TrpW390/F178pNF [1] = biological target: T3, TOP^-TrpW390/F178pNF (Rattus norvegicus, UniProt P24155, W124F/W335F/W511F/W513F/W614F); test: Inhibition constant of JA-2, continuous assay with QFS, TOP^-TrpW390/F178pNF; assay type: biochemical; settings: substrate QFS, 37 °C, 50 mM Tris-HCl pH 7.4, 100 mM NaCl, 0.5 mM DTT
# T3 construct: made in house; host or cells: Escherichia coli BL21 (DE3), pET26b + pACYC184 (orthogonal tRNA/synthetase pair for pNF)
# T3 sequence (P24155 whole entry W124F/W335F/W511F/W513F/W614F): as above
# Experimental: as §1, §2
# TOP^-TrpW390/L182pNF [2] = biological target: T4, TOP^-TrpW390/L182pNF (Rattus norvegicus, UniProt P24155, L182F/W124F/W335F/W511F/W513F/W614F); test: Inhibition constant of JA-2, continuous assay with QFS, TOP^-TrpW390/L182pNF; assay type: biochemical; settings: substrate QFS, 37 °C, 50 mM Tris-HCl pH 7.4, 100 mM NaCl, 0.5 mM DTT
# T4 construct: made in house; host or cells: Escherichia coli BL21 (DE3), pET26b + pACYC184 (orthogonal tRNA/synthetase pair for pNF)
# T4 sequence (P24155 whole entry W124F/L182F/W335F/W511F/W513F/W614F): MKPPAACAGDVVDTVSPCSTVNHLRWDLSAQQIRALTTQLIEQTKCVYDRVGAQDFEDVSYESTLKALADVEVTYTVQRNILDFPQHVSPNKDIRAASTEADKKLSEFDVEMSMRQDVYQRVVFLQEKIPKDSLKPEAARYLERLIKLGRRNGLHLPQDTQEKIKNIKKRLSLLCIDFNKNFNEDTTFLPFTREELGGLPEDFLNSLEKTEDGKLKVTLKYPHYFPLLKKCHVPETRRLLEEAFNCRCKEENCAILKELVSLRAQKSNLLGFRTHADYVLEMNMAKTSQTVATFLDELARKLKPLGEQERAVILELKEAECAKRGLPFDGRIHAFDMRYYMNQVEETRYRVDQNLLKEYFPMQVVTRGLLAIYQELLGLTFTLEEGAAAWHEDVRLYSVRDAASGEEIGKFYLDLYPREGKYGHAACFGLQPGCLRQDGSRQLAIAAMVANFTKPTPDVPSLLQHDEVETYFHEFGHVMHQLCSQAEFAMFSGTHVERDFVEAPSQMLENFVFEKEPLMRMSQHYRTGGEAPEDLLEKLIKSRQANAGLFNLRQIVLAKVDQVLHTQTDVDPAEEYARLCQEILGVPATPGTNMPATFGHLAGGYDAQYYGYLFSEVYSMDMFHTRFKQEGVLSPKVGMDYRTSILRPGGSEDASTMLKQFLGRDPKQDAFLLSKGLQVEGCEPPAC
# Experimental: as §1, §2
# TOP^-TrpW390/L215pNF [3] = biological target: T5, TOP^-TrpW390/L215pNF (Rattus norvegicus, UniProt P24155, L215F/W124F/W335F/W511F/W513F/W614F); test: Inhibition constant of JA-2, continuous assay with QFS, TOP^-TrpW390/L215pNF; assay type: biochemical; settings: substrate QFS, 37 °C, 50 mM Tris-HCl pH 7.4, 100 mM NaCl, 0.5 mM DTT
# T5 construct: made in house; host or cells: Escherichia coli BL21 (DE3), pET26b + pACYC184 (orthogonal tRNA/synthetase pair for pNF)
# T5 sequence (P24155 whole entry W124F/L215F/W335F/W511F/W513F/W614F): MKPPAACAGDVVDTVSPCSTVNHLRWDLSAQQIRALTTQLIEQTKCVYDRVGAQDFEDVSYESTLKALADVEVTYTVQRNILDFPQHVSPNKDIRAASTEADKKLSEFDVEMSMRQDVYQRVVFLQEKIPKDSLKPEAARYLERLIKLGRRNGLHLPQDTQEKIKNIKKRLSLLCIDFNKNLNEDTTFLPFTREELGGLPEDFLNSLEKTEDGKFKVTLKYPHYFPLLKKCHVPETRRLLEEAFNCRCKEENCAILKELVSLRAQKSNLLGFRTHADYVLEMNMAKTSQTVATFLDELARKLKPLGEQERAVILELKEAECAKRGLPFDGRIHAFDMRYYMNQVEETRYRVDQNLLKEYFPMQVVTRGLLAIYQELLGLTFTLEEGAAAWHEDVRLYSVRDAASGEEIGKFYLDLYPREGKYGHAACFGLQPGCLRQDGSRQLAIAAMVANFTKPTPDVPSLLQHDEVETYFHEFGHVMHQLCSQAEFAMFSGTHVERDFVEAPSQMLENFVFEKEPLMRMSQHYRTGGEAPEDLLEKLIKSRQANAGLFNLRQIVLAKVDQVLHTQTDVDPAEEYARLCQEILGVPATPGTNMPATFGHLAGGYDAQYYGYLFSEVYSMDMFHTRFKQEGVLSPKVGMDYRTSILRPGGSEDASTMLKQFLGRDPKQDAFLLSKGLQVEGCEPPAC
# Experimental: as §1, §2
# TOP^-TrpW390/Y224pNF [4] = biological target: T6, TOP^-TrpW390/Y224pNF (Rattus norvegicus, UniProt P24155, W124F/W335F/W511F/W513F/W614F/Y224F); test: Inhibition constant of JA-2, continuous assay with QFS, TOP^-TrpW390/Y224pNF; assay type: biochemical; settings: substrate QFS, 37 °C, 50 mM Tris-HCl pH 7.4, 100 mM NaCl, 0.5 mM DTT
# T6 construct: made in house; host or cells: Escherichia coli BL21 (DE3), pET26b + pACYC184 (orthogonal tRNA/synthetase pair for pNF)
# T6 sequence (P24155 whole entry W124F/Y224F/W335F/W511F/W513F/W614F): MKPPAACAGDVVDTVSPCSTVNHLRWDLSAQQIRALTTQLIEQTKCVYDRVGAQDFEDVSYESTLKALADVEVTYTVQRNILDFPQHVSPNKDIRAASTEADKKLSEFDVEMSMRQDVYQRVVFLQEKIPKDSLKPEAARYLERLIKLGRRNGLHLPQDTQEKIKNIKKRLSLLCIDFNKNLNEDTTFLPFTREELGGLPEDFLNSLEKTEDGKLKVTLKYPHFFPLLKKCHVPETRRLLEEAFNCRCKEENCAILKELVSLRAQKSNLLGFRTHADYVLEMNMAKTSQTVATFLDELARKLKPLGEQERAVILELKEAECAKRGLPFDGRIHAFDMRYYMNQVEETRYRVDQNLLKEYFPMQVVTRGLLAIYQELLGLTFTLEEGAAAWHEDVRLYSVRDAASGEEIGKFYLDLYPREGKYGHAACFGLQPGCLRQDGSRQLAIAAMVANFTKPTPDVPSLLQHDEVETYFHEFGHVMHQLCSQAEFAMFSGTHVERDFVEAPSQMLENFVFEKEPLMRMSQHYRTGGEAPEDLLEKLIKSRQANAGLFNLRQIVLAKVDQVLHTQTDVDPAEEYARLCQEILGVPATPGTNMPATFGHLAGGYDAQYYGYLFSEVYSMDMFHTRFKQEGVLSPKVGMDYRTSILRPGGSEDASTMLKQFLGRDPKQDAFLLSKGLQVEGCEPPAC
# Experimental: as §1, §2
# TOP^-TrpW390/F178pNF [5] = biological target: T3, TOP^-TrpW390/F178pNF; test: Protein fluorescence (Trp-pNF FRET) assay in presence of JA-2, TOP^-TrpW390/F178pNF
# TOP^-TrpW390/L182pNF [6] = biological target: T4, TOP^-TrpW390/L182pNF; test: Protein fluorescence (Trp-pNF FRET) assay in presence of JA-2, TOP^-TrpW390/L182pNF
# TOP^-TrpW390/L215pNF [7] = biological target: T5, TOP^-TrpW390/L215pNF; test: Protein fluorescence (Trp-pNF FRET) assay in presence of JA-2, TOP^-TrpW390/L215pNF
# TOP^-TrpW390/Y224pNF [8] = biological target: T6, TOP^-TrpW390/Y224pNF; test: Protein fluorescence (Trp-pNF FRET) assay in presence of JA-2, TOP^-TrpW390/Y224pNF
# [9] = 13.4 µM JA-2, 0.5 µM TOP protein, 37 °C, 50 mM Tris-HCl pH 7.4, 100 mM NaCl, 0.5 mM DTT
# [10] = 13.4 µM JA-2, calculated using Equation (1), R0 = 15.8 Å
# T1 sequence (P24155 whole entry): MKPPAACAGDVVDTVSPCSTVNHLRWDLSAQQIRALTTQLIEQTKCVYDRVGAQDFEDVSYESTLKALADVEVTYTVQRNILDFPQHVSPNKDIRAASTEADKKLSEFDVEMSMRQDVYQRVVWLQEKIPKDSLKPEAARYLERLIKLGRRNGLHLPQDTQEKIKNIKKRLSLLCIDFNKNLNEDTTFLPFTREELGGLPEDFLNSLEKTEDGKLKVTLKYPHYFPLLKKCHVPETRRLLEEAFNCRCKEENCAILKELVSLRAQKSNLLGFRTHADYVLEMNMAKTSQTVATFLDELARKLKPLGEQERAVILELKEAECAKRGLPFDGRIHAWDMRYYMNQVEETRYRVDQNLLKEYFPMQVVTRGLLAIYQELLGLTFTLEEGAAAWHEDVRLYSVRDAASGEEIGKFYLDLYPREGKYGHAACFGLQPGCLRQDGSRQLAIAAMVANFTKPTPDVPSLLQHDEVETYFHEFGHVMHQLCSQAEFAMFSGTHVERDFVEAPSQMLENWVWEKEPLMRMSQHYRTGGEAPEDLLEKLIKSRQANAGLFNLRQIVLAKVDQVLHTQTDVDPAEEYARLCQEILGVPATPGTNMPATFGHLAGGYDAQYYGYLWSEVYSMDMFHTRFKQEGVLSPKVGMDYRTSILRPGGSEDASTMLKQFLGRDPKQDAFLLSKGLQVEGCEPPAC
smiles,measurement,setting,value
"C[C@H](NC(CCc1ccccc1)C(=O)O)C(=O)NC(C)(C)C(=O)N[C@@H](Cc1ccc(O)cc1)C(=O)Nc1ccc(C(=O)O)cc1 (stereo partly drawn) [JA-2, N-[1-(R,S)-carboxy-3-phenylpropyl]Ala-Aib-Tyr-p-aminobenzoate]",Ki,WT TOP,32 ± 1 nM
same,Ki,TOP^-TrpW390,750 ± 40 nM
same,Ki,TOP^-TrpW390/F178pNF [1],1230 ± 80 nM
same,Ki,TOP^-TrpW390/L182pNF [2],740 ± 60 nM
same,Ki,TOP^-TrpW390/L215pNF [3],870 ± 50 nM
same,Ki,TOP^-TrpW390/Y224pNF [4],1160 ± 60 nM
same,"FRET Efficiency, +JA-2",TOP^-TrpW390/F178pNF [5]; [9],0.150 ± 0.009
same,"D-A Distance, +JA-2",TOP^-TrpW390/F178pNF [5]; [10],21 Å
same,"FRET Efficiency, +JA-2",TOP^-TrpW390/L182pNF [6]; [9],0.24 ± 0.02
same,"D-A Distance, +JA-2",TOP^-TrpW390/L182pNF [6]; [10],19 Å
same,"FRET Efficiency, +JA-2",TOP^-TrpW390/L215pNF [7]; [9],0.10 ± 0.005
same,"D-A Distance, +JA-2",TOP^-TrpW390/L215pNF [7]; [10],23 Å
same,"FRET Efficiency, +JA-2",TOP^-TrpW390/Y224pNF [8]; [9],0.30 ± 0.02
same,"D-A Distance, +JA-2",TOP^-TrpW390/Y224pNF [8]; [10],18 Å

# — paper PMC9266445, “Probing the Conformational States of Thimet Oligopeptidase in Solution” (International Journal of Molecular Sciences, 2022)
